Source: patent EP1433789A1, “Pyrrolopyrazines and their use as selective apoptosis inducers” (Aponetics AG, priority 2002, dated 2004)

Legend:
HeLa [1] = test: AnnexinV/7-AAD staining; type: cell-based, human; details: 10 µM, 24 h treatment
How it was run: (§1)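 Cells treated with compound at 10 µM final for 24 h, then stained with AnnexinV-GST/anti-GST Alexa 488 and 7-AAD and analysed by flow cytometry. Percent positive cells scored as 0 (<10%), 1 (10–50%) or 2 (>50%).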

Ramos [2] = test: AnnexinV/7-AAD staining; type: cell-based, human; details: 10 µM, 24 h treatment
How it was run: as §1

Jurkat [3] = test: AnnexinV/7-AAD staining; type: cell-based, human; details: 10 µM, 24 h treatment
How it was run: as §1

HT 1080 = test: Hoechst 33342 nuclear staining (Table 3); type: cell-based, human; parameters: key: 0 relating to no activity; 1 relating to weak activity comprising less than 50% of the cells; score 2 relating to strong activity comprising more than 50% of the cells
How it was run: (§2)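 Adherent cells (3-5×10^3, pre-spread 24 h) or suspension cells (8-10×10^3) treated with compounds at 10, 3, 1 and 0.3 µM for 24 or 48 h, then Hoechst 33342 stained for 30 min. Apoptotic nuclear morphology scored by fluorescence microscopy: 0 none, 1 weak (<50% cells), 2 strong (>50% cells).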

Ramos [4] = test: Hoechst 33342 nuclear staining (Table 3); type: cell-based, human; parameters: key: 0 relating to no activity; 1 relating to weak activity comprising less than 50% of the cells; score 2 relating to strong activity comprising more than 50% of the cells
How it was run: as §2

HBL 100 = test: Hoechst 33342 nuclear staining (Table 3); type: cell-based, human; parameters: key: 0 relating to no activity; 1 relating to weak activity comprising less than 50% of the cells; score 2 relating to strong activity comprising more than 50% of the cells
How it was run: as §2

HeLa [5] = test: PI staining for cell cycle distribution; type: cell-based, human; parameters: key: 0 indicates no occurrence at all; 1 for weak; 2 for strong occurrence; details: HeLa 10 µM, 24 h
Protocol: (§3) 1 - 2*10^5 cells are seeded into 24 well tissue culture plates and incubated for 24 h prior to compound addition. Compounds are added for 24 h in a final concentration of 3 µM or 10 µM. Adherent cells are harvested by trypsinization. The cell suspensions are fixed by adding 2 parts ice cold ethanol 100% while vortexing. Then the samples are stored for > 2 h at-20°C. Subsequently the cells are washed with PBS once and resuspended in 250 µl PBS containing 50 µg/ml PI (Calbiochem # 537059), then the samples are incubated at 37°C for 30 minutes and subsequently analyzed on a FACSCalibur™ monitoring linear PI fluorescence activity on FL2.. The readout allows the detection of a possible direct or indirect influence of the tested compounds on the cell cycle. The following events can occur: a) Generation of a subG1 peak indicative for DNA fragmentation, b) increase of the cell population arrested in G2M phase. Both events are scored by 1 for weak and 2 for strong occurrence. 0 indicates no occurrence at all. […]

Jurkat [6] = test: PI staining for cell cycle distribution; type: cell-based, human; parameters: key: 0 indicates no occurrence at all; 1 for weak; 2 for strong occurrence; details: Jurkat 3 uM, 24 h
Protocol: as §3

HeLa [7] = test: MTS proliferation assay; type: cell-based; details: Homo sapiens, 72 h incubation
Protocol: (§4) The assay is performed in 96 well tissue culture plates. The cells (range : 1.5*10^3-10^4) are seeded out in 80 µl complete medium 24 h prior to compound treatment. The test compounds are added in 20 µl complete medium containing max 5% DMSO. The final compound concentrations in the assays are 10 µM, 3 µM,1 µM and 0.3 µM, respectively. The assay plates are incubated for 72 h at culture conditions. The MTS reagent is prepared according to the manufacturer's protocol (Promega G1111 ). 20 µl MTS reagent are added to each well, the assay plates are quickly spun and incubated for another 3 h at culture conditions. Subsequently, the plates are shortly shaked and absorption measured with a microplate-reader at 492 nm.

K562 = test: MTS proliferation assay; type: cell-based; details: Homo sapiens, K562, 72 h incubation
Protocol: as §4

Jurkat [8] = test: MTS proliferation assay; type: cell-based; details: Homo sapiens, 72 h incubation
Protocol: as §4

Compound: CC1(C)Cc2ccccc2-c2c(Br)c3nc4ccccc4nc3n21 [No. 2, 13-Bromo-6,6-dimethyl-5,6-dihydro-6a,7,12-triaza-dibenzo[a,h]fluorene]
- percentage of positively stained cells (AnnexinV/7-AAD staining) (HeLa [1]): 1 (score 1 relates to more than 10% but less than 50%)
- percentage of positively stained cells (AnnexinV/7-AAD staining) (Ramos [2]): 2 (score 2 relates to more than 50% positivity)
- percentage of positively stained cells (AnnexinV/7-AAD staining) (Jurkat [3]): 2 (score 2 relates to more than 50% positivity)
- Hoechst 33342 nuclear staining (fraction of apoptotic nuclei), score (HT 1080; HT 1080, 24h, 0.3 µM): 0
- Hoechst 33342 nuclear staining (fraction of apoptotic nuclei), score (HT 1080; HT 1080, 24h, 1 µM): 0
- Hoechst 33342 nuclear staining (fraction of apoptotic nuclei), score (HT 1080; HT 1080, 24h, 3 µM): 0
- Hoechst 33342 nuclear staining (fraction of apoptotic nuclei), score (HT 1080; HT 1080, 24h, 10 µM): 0
- Hoechst 33342 nuclear staining (fraction of apoptotic nuclei), score (HT 1080; HT 1080, 48h, 0.3 µM): 0
- Hoechst 33342 nuclear staining (fraction of apoptotic nuclei), score (HT 1080; HT 1080, 48h, 1 µM): 0
- Hoechst 33342 nuclear staining (fraction of apoptotic nuclei), score (HT 1080; HT 1080, 48h, 3 µM): 0
- Hoechst 33342 nuclear staining (fraction of apoptotic nuclei), score (HT 1080; HT 1080, 48h, 10 µM): 1 (1 relating to weak activity comprising less than 50% of the cells)
- Hoechst 33342 nuclear staining (Ramos [4]; 24h, conc 0.3 (µM)): 0
- Hoechst 33342 nuclear staining (Ramos [4]; 24h, conc 1 (µM)): 0
- Hoechst 33342 nuclear staining (Ramos [4]; 24h, conc 3 (µM)): 0
- Hoechst 33342 nuclear staining (Ramos [4]; 24h, conc 10 (µM)): 2 (score 2 relating to strong activity comprising more than 50% of the cells)
- Hoechst 33342 nuclear staining (Ramos [4]; 48h, conc 0.3 (µM)): 2 (score 2 relating to strong activity comprising more than 50% of the cells)
- Hoechst 33342 nuclear staining (Ramos [4]; 48h, conc 1 (µM)): 2 (score 2 relating to strong activity comprising more than 50% of the cells)
- Hoechst 33342 nuclear staining (Ramos [4]; 48h, conc 3 (µM)): 2 (score 2 relating to strong activity comprising more than 50% of the cells)
- Hoechst 33342 nuclear staining (Ramos [4]; 48h, conc 10 (µM)): 2 (score 2 relating to strong activity comprising more than 50% of the cells)
- Hoechst 33342 nuclear staining (fraction of apoptotic nuclei), score (HBL 100; HBL 100, 24h, 0.3 µM): 0
- Hoechst 33342 nuclear staining (fraction of apoptotic nuclei), score (HBL 100; HBL 100, 24h, 1 µM): 0
- Hoechst 33342 nuclear staining (fraction of apoptotic nuclei), score (HBL 100; HBL 100, 24h, 3 µM): 0
- Hoechst 33342 nuclear staining (fraction of apoptotic nuclei), score (HBL 100; HBL 100, 24h, 10 µM): 0
- Hoechst 33342 nuclear staining (fraction of apoptotic nuclei), score (HBL 100; HBL 100, 48h, 0.3 µM): 0
- Hoechst 33342 nuclear staining (fraction of apoptotic nuclei), score (HBL 100; HBL 100, 48h, 1 µM): 0
- Hoechst 33342 nuclear staining (fraction of apoptotic nuclei), score (HBL 100; HBL 100, 48h, 3 µM): 0
- Hoechst 33342 nuclear staining (fraction of apoptotic nuclei), score (HBL 100; HBL 100, 48h, 10 µM): 2 (score 2 relating to strong activity comprising more than 50% of the cells)

Compound: CC1Cc2ccccc2-c2c(Cl)c3nc4ccccc4nc3n21 (stereo not drawn) [compound 11]
- percentage of positively stained cells (AnnexinV/7-AAD staining) (HeLa [1]): 1 (score 1 relates to more than 10% but less than 50%)
- percentage of positively stained cells (AnnexinV/7-AAD staining) (Ramos [2]): 2 (score 2 relates to more than 50% positivity)
- percentage of positively stained cells (AnnexinV/7-AAD staining) (Jurkat [3]): 0 (Score 0 relates to less than 10%)
- G2M (increase of the cell population arrested in G2M phase) (HeLa [5]): 0
- subG1 (generation of a subG1 peak indicative for DNA fragmentation) (HeLa [5]): 0
- G2M (increase of the cell population arrested in G2M phase) (Jurkat [6]): 0
- subG1 (generation of a subG1 peak indicative for DNA fragmentation) (Jurkat [6]): 0
- IC50 (HeLa [7]): > 10 µM
- IC50 (K562): > 10 µM
- IC50 (Jurkat [8]): > 10 µM

Compound: COc1cc2c(cc1OC)-c1c(Cl)c3nc4ccccc4nc3n1C(C)C2 (stereo not drawn) [compound 12]
- percentage of positively stained cells (AnnexinV/7-AAD staining) (HeLa [1]): 2 (score 2 relates to more than 50% positivity)
- percentage of positively stained cells (AnnexinV/7-AAD staining) (Ramos [2]): 2 (score 2 relates to more than 50% positivity)
- percentage of positively stained cells (AnnexinV/7-AAD staining) (Jurkat [3]): 2 (score 2 relates to more than 50% positivity)
- G2M (increase of the cell population arrested in G2M phase) (HeLa [5]): 0
- subG1 (generation of a subG1 peak indicative for DNA fragmentation) (HeLa [5]): 0
- G2M (increase of the cell population arrested in G2M phase) (Jurkat [6]): 0
- subG1 (generation of a subG1 peak indicative for DNA fragmentation) (Jurkat [6]): 0
- IC50 (HeLa [7]): > 10 µM
- IC50 (K562): > 10 µM
- IC50 (Jurkat [8]): > 10 µM

Compound: CCC1Cc2cc(OC)c(OC)cc2-c2cc3nc4ccccc4nc3n21 (stereo not drawn) [compound 13]
- percentage of positively stained cells (AnnexinV/7-AAD staining) (HeLa [1]): 1 (score 1 relates to more than 10% but less than 50%)
- percentage of positively stained cells (AnnexinV/7-AAD staining) (Ramos [2]): 2 (score 2 relates to more than 50% positivity)
- percentage of positively stained cells (AnnexinV/7-AAD staining) (Jurkat [3]): 2 (score 2 relates to more than 50% positivity)
- G2M (increase of the cell population arrested in G2M phase) (HeLa [5]): 0
- subG1 (generation of a subG1 peak indicative for DNA fragmentation) (HeLa [5]): 0
- G2M (increase of the cell population arrested in G2M phase) (Jurkat [6]): 0
- subG1 (generation of a subG1 peak indicative for DNA fragmentation) (Jurkat [6]): 0
- IC50 (HeLa [7]): > 10 µM
- IC50 (K562): > 10 µM
- IC50 (Jurkat [8]): 1 to 10 µM
